Assay results reported in US11484607B2, “PSMA-targeted NIR dyes and their uses” (On Target Laboratories, LLC, priority 2015, dated 2022).

Target: T1, PSMA (Homo sapiens, UniProt Q04609)
T1 construct: host or cells: 22Rv1 human prostate cancer cells
Test: Relative binding affinity of DUPA-NIR conjugates with respect to DUPA-FITC on 22Rv1 cells, flow cytometry
Conditions: for Kd: 1 h at 37° C., 100 nM DUPA-FITC; for affinity for PSMA (in words): in vitro binding affinity data
Experimental: (§1) FIG. 3—Relative binding affinities of DUPA-NIR conjugates 1-9 with respect to DUPA-FITC (14). PSMA-positive 22Rv1 human prostate cancer cells were incubated for 1 h at 37° C. in the presence of 100 nM DUPA-FITC with increasing concentrations of DUPA-NIR conjugates. […] Cell bound fluorescence was assayed as using flow cytometry.
as §1, with “6—Relative” for “3—Relative”, “with aromatic amino acids linkers” for “1-9”
as §1, with “3 Relative” for “3—Relative”
in vitro studies. […] PSMA-positive 22Rv1 human prostate cancer cells were incubated for 1 h at 37° C. in the presence of 100 nM DUPA-FITC with increasing concentrations of DUPA-NIR conjugates. […] Cell bound fluorescence was assayed as using flow cytometry.
PSMA-positive 22Rv1 human prostate cancer cells were incubated for 1 h at 37° C. in the presence of 100 nM DUPA-FITC with increasing concentrations of DUPA-NIR conjugates. […] Cell bound fluorescence was assayed as using flow cytometry.
as §1, with “24: Relative” for “3—Relative”, “conjugates” for “conjugates 1-9”
PSMA-positive 22Rv1 human prostate cancer cells were incubated for 1 h at 37° C. in the presence of 100 nM DUPA-FITC with increasing concentrations of DUPA-NIR conjugates. […] Cell bound fluorescence was assayed as using flow cytometry
Cancer cells were incubated for 1 h at 37° C. in the presence of 100 nM DUPA-FITC with increasing concentrations of compound 15. […] Cell bound fluorescence was assayed as using flow cytometry.

[1] = conjugates with variable length spacers
[2] = conjugates with aromatic linkers
[3] = Example 5, variably charged NIR dye

T1 sequence (Q04609 whole entry): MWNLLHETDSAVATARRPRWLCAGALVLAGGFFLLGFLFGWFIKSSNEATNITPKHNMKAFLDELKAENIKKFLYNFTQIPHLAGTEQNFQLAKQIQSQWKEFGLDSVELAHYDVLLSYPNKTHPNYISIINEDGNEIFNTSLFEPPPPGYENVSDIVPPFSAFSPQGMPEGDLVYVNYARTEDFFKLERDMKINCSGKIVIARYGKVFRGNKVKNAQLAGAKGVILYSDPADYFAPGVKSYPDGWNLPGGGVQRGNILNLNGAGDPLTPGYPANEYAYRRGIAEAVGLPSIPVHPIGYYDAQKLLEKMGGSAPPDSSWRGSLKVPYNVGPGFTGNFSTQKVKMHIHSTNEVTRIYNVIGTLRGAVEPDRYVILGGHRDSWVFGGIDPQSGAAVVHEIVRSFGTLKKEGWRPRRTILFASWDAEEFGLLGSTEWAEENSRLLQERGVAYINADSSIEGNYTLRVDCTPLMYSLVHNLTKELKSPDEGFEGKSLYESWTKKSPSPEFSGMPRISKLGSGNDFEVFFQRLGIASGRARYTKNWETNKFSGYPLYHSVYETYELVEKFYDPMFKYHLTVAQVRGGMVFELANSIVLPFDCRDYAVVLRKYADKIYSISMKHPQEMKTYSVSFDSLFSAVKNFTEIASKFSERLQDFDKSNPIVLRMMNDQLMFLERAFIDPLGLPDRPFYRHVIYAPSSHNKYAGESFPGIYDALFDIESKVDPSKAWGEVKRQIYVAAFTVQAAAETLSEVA

Kd [1] | affinity for PSMA (in words) | SMILES | other results
142 nM | low affinity | CC1(C)C(/C=C/C2=C(Oc3ccc(C[C@H](NC(=O)CC[C@H](NC(=O)N[C@@H](CCC(=O)O)C(=O)O)C(=O)O)C(=O)O)cc3)C(=C/C=C3/N(CCCCS(=O)(=O)O)c4ccc(S(=O)(=O)O)cc4C3(C)C)/CCC2)=[N+](CCCCS(=O)(=O)[O-])c2ccc(S(=O)(=O)O)cc21 [Compound 1] | 
113 nM | low affinity | CC1(C)C(/C=C/C2=C(Oc3ccc(CCNC(=O)CC[C@H](NC(=O)N[C@@H](CCC(=O)O)C(=O)O)C(=O)O)cc3)C(=C/C=C3/N(CCCCS(=O)(=O)O)c4ccc(S(=O)(=O)O)cc4C3(C)C)/CCC2)=[N+](CCCCS(=O)(=O)[O-])c2ccc(S(=O)(=O)O)cc21 [Compound 2] | 
9.71 nM | very high affinity | CC1(C)C(/C=C/C2=C(Oc3ccc(C[C@H](NC(=O)C[C@H](NC(=O)CC[C@H](NC(=O)N[C@@H](CCC(=O)O)C(=O)O)C(=O)O)C(=O)O)C(=O)O)cc3)C(=C/C=C3/N(CCCCS(=O)(=O)O)c4ccc(S(=O)(=O)O)cc4C3(C)C)/CCC2)=[N+](CCCCS(=O)(=O)[O-])c2ccc(S(=O)(=O)O)cc21 [Compound 3] | 
12.2 nM | very high affinity | CC1(C)C(/C=C/C2=C(Oc3ccc(C[C@H](NC(=O)CCCCCCCNC(=O)[C@H](Cc4ccccc4)NC(=O)CC[C@H](NC(=O)N[C@@H](CCC(=O)O)C(=O)O)C(=O)O)C(=O)O)cc3)C(=C/C=C3/N(CCCCS(=O)(=O)O)c4ccc(S(=O)(=O)O)cc4C3(C)C)/CCC2)=[N+](CCCCS(=O)(=O)[O-])c2ccc(S(=O)(=O)O)cc21 [Compound 5] | 
23.2 nM |  | CC1(C)C(/C=C/C2=C(Oc3ccc(C[C@H](NC(=O)[C@H](Cc4ccccc4)NC(=O)[C@H](Cc4ccccc4)NC(=O)CCCCCCCNC(=O)C[C@H](NC(=O)CC[C@H](NC(=O)N[C@@H](CCC(=O)O)C(=O)O)C(=O)O)C(=O)O)C(=O)O)cc3)C(=C/C=C3/N(CCCCS(=O)(=O)O)c4ccc(S(=O)(=O)O)cc4C3(C)C)/CCC2)=[N+](CCCCS(=O)(=O)[O-])c2ccc(S(=O)(=O)O)cc21 [Compound 8] | 
17.2 nM |  | CC1(C)C(/C=C/C2=C(Oc3ccc(C[C@H](NC(=O)CCCCCCCNC(=O)CCCCCCCNC(=O)CC[C@H](NC(=O)N[C@@H](CCC(=O)O)C(=O)O)C(=O)O)C(=O)O)cc3)C(=C/C=C3/N(CCCCS(=O)(=O)O)c4ccc(S(=O)(=O)O)cc4C3(C)C)/CCC2)=[N+](CCCCS(=O)(=O)[O-])c2ccc(S(=O)(=O)O)cc21 [Compound 9] | 
 |  | CC1(C)C(/C=C/C2=C(SC[C@H](NC(=O)[C@H](Cc3ccccc3)NC(=O)[C@H](Cc3ccccc3)NC(=O)CCCCCCCNC(=O)CC[C@H](NC(=O)N[C@@H](CCC(=O)O)C(=O)O)C(=O)O)C(=O)O)C(=C/C=C3/N(CCCCS(=O)(=O)O)c4ccc(S(=O)(=O)O)cc4C3(C)C)/CCC2)=[N+](CCCCS(=O)(=O)[O-])c2ccc(S(=O)(=O)O)cc21 [Compound 27] | Kd [2]: 22.2 nM
 |  | CC1(C)C(/C=C/C2=C(Oc3ccc(C[C@H](NC(=O)[C@H](Cc4c[nH]cn4)NC(=O)CCCCCCCNC(=O)CC[C@H](NC(=O)N[C@@H](CCC(=O)O)C(=O)O)C(=O)O)C(=O)O)cc3)C(=C/C=C3/N(CCCCS(=O)(=O)O)c4ccc(S(=O)(=O)O)cc4C3(C)C)/CCC2)=[N+](CCCCS(=O)(=O)[O-])c2ccc(S(=O)(=O)O)cc21 [Compound 32] | Kd [2]: 32 nM
 |  | CC1(C)C(/C=C/C2=C(Oc3ccc(C[C@H](NC(=O)[C@H](Cc4c[nH]c5ccccc45)NC(=O)CCCCCCCNC(=O)CC[C@H](NC(=O)N[C@@H](CCC(=O)O)C(=O)O)C(=O)O)C(=O)O)cc3)C(=C/C=C3/N(CCCCS(=O)(=O)O)c4ccc(S(=O)(=O)O)cc4C3(C)C)/CCC2)=[N+](CCCCS(=O)(=O)[O-])c2ccc(S(=O)(=O)O)cc21 [Compound 33] | Kd [2]: 16 nM
 |  | CC1(C)C(/C=C/C2=C(Oc3ccc(C[C@H](NC(=O)CCCCCCCNC(=O)[C@H](Cc4ccccc4)NC(=O)[C@H](Cc4ccccc4)NC(=O)CCCCCCCNC(=O)CC[C@H](NC(=O)N[C@@H](CCC(=O)O)C(=O)O)C(=O)O)C(=O)O)cc3)C(=C/C=C3/N(CCCCS(=O)(=O)O)c4ccc(S(=O)(=O)O)cc4C3(C)C)/CCC2)=[N+](CCCCS(=O)(=O)[O-])c2ccc(S(=O)(=O)O)cc21 [Compound 34] | Kd [2]: 34.9 nM
 |  | CC1(C)C(/C=C/C2=C(Oc3ccc(C[C@H](NC(=O)[C@H](Cc4ccccc4)NC(=O)CCCCCCCNC(=O)CC[C@H](NC(=O)N[C@@H](CCC(=O)O)C(=O)O)C(=O)O)C(=O)O)cc3)C(=C/C=C3/N(CCCCS(=O)(=O)O)c4ccccc4C3(C)C)/CCC2)=[N+](CCCCS(=O)(=O)[O-])c2ccccc21 [Compound 54] | Kd [3]: 2.6 nM
 | very high affinity | CN1/C(=C/C=C2\CCCC(/C=C/C3=[N+](C)c4ccccc4C3(C)C)=C2Oc2ccc(C[C@H](NC(=O)[C@H](Cc3ccccc3)NC(=O)CCCCCCCNC(=O)CC[C@H](NC(=O)N[C@@H](CCC(=O)O)C(=O)O)C(=O)O)C(=O)O)cc2)C(C)(C)c2ccccc21 [Compound 55] | Kd [3]: 7.3 nM
 | very high affinity | CN1/C(=C/C=C2\CCCC(/C=C/C3=[N+](C)c4ccc(S(=O)(=O)[O-])cc4C3(C)C)=C2Oc2ccc(C[C@H](NC(=O)[C@H](Cc3ccccc3)NC(=O)CCCCCCCNC(=O)CC[C@H](NC(=O)N[C@@H](CCC(=O)O)C(=O)O)C(=O)O)C(=O)O)cc2)C(C)(C)c2cc(S(=O)(=O)O)ccc21 [Compound 56] | Kd [3]: 3.7 nM
 |  | CC1(C)C(/C=C/C2=C(Oc3ccc(C[C@H](NC(=O)[C@H](Cc4ccccc4)NC(=O)CCCCCCCNC(=O)CC[C@H](NC(=O)N[C@@H](CCC(=O)O)C(=O)O)C(=O)O)C(=O)O)cc3)C(=C/C=C3/N(CCC[N+](C)(C)C)c4ccccc4C3(C)C)/CCC2)=[N+](CCC[N+](C)(C)C)c2ccccc21 [Compound 59] | Kd [3]: 60.9 nM
 |  | CC1(C)C(/C=C/C2=C(Oc3ccc(C[C@H](NC(=O)[C@H](Cc4ccccc4)NC(=O)CCCCCCCNC(=O)CC[C@H](NC(=O)N[C@@H](CCC(=O)O)C(=O)O)C(=O)O)C(=O)O)cc3)C(=C/C=C3/N(CCC[N+](C)(C)C)c4ccc(S(=O)(=O)O)cc4C3(C)C)/CCC2)=[N+](CCC[N+](C)(C)C)c2ccc(S(=O)(=O)O)cc21 [Compound 60] | Kd [3]: 5.4 nM
 | low affinity | CC1(C)C(=CC=C2CCOC(C=CC3=[N+](CCCCS(=O)(=O)[O-])c4ccc(S(=O)(=O)O)cc4C3(C)C)=C2c2ccc(C(=O)NCCNC(=O)C(Cc3ccccc3)NC(=O)CCCCCCCNC(=O)CCC(NC(=O)NC(CCC(=O)O)C(=O)O)C(=O)O)cc2)N(CCCCS(=O)(=O)O)c2ccc(S(=O)(=O)O)cc21 (stereo not drawn) [Compound 62] | 
 | low affinity | CC1(C)C(=CC=C2CCCC(C=CC3=[N+](CCCCS(=O)(=O)[O-])c4ccccc4C3(C)C)=C2Oc2ccc(CC(NC(=O)C(CCCNC(=N)N)NC(=O)C(Cc3ccccc3)NC(=O)CCCCCCCNC(=O)CCC(NC(=O)NC(CCC(=O)O)C(=O)O)C(=O)O)C(=O)O)cc2)N(CCCCS(=O)(=O)O)c2ccccc21 (stereo not drawn) [Compound 65] | 
 | low affinity | CC1(C)C(=CC=C2CCCC(C=CC3=[N+](CCCCS(=O)(=O)[O-])c4ccccc4C3(C)C)=C2Oc2ccc(CC(NC(=O)C(CCCNC(=N)N)NC(=O)C(CCCNC(=N)N)NC(=O)CCCCCCCNC(=O)CCC(NC(=O)NC(CCC(=O)O)C(=O)O)C(=O)O)C(=O)O)cc2)N(CCCCS(=O)(=O)O)c2ccccc21 (stereo not drawn) [Compound 66] | 
